Experimental data from US20030087956A1, “Urea compounds as inhibitors for vla-4” (priority 2000, published 2003).
pIC50: −log10 of the molar value.

Target: T1, integrin α4β1 (Homo sapiens, UniProt P05556+P13612)
T1 construct: expressed on the MOLT-4 cell membrane; host or cells: MOLT-4 human T-lymphoblastic leukaemia cells
Experiment: MOLT-4 cell/Fibronectin adhesion assay
Format: cell-based
Conditions: MOLT-4 cells on fibronectin-coated plates, 2 h at 37° C., acid phosphatase readout; read-out: inhibitor of MOLT-4 cell adhesion to fibronectin (concentration at which compound is an inhibitor)
Text: MOLT-4 cells—human T-lymphoblastic leukaemia cells (European Collection of Animal Cell Cultures, Porton Down)
Fibronectin—purified from human plasma by gelatin-sepharose affinity chromatography according to the methods described in E. Nengvall, E. Ruoslahti, Int. J. Cancer, 1977, 20, pages 1-5 and J. Forsyth et al, Methods in Enzymology, 1992, 215, pages 311-316).
1.1.1 MOLT-4 cell/Fibronectin adhesion assay.
The MOLT-4 cell/fibronectin adhesion assay was used to investigate the interaction of the integrin α4-β1expressed on the MOLT-4 cell membrane with fibronectin. Polystyrene 96 well plates were coated overnight at 4° C. with fibronectin, 100 μl of 10 μg/ml in PBS. Non-specific adhesion sites were blocked by adding 100 μl BSA, 20 mg/ml. After incubating for 1 h at room temperature, the solutions were aspirated. […] Adherent cells were quantified by a colorimetric acid phosphatase assay. […] After incubation for 1 h at 37° C., 50 μl sodium hydroxide (1M) was added to each well and the absorbance 405 nm was measured on a microplate spectrophotometer. Compounds which inhibited adhesion gave a lower absorbance reading. […] Percentage inhibition was calculated with respect to total (no inhibitor) and non-specific (no fibronectin) standards on each plate.

T1 sequence (P13612 34-1032): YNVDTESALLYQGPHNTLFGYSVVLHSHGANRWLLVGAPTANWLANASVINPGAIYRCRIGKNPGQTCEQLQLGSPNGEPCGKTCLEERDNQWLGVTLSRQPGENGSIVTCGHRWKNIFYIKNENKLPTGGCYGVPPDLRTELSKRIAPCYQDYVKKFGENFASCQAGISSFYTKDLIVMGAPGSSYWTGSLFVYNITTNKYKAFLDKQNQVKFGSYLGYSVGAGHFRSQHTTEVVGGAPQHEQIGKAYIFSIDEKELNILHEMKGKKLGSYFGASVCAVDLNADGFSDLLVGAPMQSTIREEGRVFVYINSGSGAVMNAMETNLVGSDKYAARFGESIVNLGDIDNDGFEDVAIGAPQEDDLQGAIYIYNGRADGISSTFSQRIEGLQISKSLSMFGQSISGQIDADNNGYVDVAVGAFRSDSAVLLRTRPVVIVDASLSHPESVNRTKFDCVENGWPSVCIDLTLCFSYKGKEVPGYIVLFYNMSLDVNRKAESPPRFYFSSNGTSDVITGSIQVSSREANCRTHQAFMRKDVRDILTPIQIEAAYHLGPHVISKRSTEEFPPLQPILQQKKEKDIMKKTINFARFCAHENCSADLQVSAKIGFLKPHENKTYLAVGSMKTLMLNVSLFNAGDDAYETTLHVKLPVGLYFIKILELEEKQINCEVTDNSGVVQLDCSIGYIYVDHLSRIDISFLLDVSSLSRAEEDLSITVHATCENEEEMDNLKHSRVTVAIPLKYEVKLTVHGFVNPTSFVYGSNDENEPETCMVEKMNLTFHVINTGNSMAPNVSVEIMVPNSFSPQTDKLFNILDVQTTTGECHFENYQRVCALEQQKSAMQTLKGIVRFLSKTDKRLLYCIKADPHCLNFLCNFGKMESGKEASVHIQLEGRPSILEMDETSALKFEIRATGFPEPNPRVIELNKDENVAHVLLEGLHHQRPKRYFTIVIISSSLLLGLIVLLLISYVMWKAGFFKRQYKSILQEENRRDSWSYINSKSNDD
T1 sequence (P05556 21-798): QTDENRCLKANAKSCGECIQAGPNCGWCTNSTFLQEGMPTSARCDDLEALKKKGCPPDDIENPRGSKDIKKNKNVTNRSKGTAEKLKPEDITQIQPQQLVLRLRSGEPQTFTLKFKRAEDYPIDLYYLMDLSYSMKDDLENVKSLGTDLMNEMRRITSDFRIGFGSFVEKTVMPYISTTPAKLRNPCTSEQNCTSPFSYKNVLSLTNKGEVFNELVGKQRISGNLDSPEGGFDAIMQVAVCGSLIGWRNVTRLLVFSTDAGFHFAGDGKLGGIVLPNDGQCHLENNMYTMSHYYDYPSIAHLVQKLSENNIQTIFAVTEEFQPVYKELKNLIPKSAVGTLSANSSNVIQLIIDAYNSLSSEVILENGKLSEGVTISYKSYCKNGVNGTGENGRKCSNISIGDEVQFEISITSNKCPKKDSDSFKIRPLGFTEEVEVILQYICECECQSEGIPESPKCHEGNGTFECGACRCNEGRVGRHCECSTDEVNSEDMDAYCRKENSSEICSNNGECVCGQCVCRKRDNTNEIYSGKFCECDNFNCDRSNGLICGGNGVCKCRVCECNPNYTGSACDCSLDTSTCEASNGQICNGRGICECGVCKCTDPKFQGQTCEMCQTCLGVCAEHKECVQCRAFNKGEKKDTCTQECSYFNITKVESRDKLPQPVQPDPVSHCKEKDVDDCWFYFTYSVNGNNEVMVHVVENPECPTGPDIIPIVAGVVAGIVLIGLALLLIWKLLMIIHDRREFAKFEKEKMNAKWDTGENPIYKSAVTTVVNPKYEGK

Row | pIC50 | Structure (SMILES)
1 | 7.06 | Cc1ccccc1NC(=O)Nc1ccc(CC(=O)Nc2ccc(OCCN3CCCCC3)c(OCCCC(=O)O)c2)cc1 [Compound 1]
2 | 7.08 | Cc1ccccc1NC(=O)Nc1ccc(CC(=O)Nc2ccc(OCCCN3CCCC3)c(OCCCC(=O)O)c2)cc1 [Compound 2]
